Reference: ChEMBL document CHEMBL1132799, “Hybridization of non-sulfonylurea insulin secretagogue and thiazolidinedione-derived insulin sensitizer” (2000)

Tested on: 3T3-L1
Experiment: Insulin-sensitizing activity; triglyceride accumulation from insulin regulated differentiation of 3T3-L1 cells at 1 uM expressed as percent activity of pioglitazone
Format: functional, Mus musculus

Compound	Activity [%]
CCc1ccc(CCOc2ccc(CC3SC(=O)NC3=O)cc2)nc1 (stereo unspecified) [PIOGLITAZONE]	100
O=C(O)/C(=C\c1ccc(OCCc2ccc(C(F)(F)F)cc2)cc1)CC(=O)N1C[C@H]2CCCC[C@H]2C1	5
CCc1ccc(CCOc2ccc(C[C@H](CC(=O)N3C[C@H]4CCCC[C@H]4C3)C(=O)O)cc2)nc1	17
CCc1ccc(CCOc2ccc(CC(CC(=O)N3C[C@H]4CCCC[C@H]4C3)C(=O)O)cc2)nc1 (stereo partly specified)	8
Cc1oc(-c2ccccc2)nc1CCOc1ccc(/C=C(\CC(=O)N2C[C@H]3CCCC[C@H]3C2)C(=O)O)cc1	103
CCc1ccc(CCOc2ccc(/C=C(\CC(=O)N3C[C@H]4CCCC[C@H]4C3)C(=O)O)cc2)nc1	20
Cc1oc(-c2ccccc2)nc1CCOc1ccc(CC(CC(=O)N2C[C@H]3CCCC[C@H]3C2)C(=O)O)cc1 (stereo partly specified)	45
CCc1ccc(CCOc2ccc(CC(NC(=O)[C@H]3CC[C@H](C(C)C)CC3)C(=O)O)cc2)nc1 (stereo partly specified)	2
Cc1oc(-c2ccncc2)nc1CCOc1ccc(/C=C(\CC(=O)N2C[C@H]3CCCC[C@H]3C2)C(=O)O)cc1	93
O=C(O)/C(=C\c1ccc(OCc2ccc(C(F)(F)F)cc2)cc1)CC(=O)N1C[C@H]2CCCC[C@H]2C1	15
CCc1ccc(CCOc2ccc(C[C@@H](CC(=O)N3C[C@H]4CCCC[C@H]4C3)C(=O)O)cc2)nc1	4
CN(CCOc1ccc(/C=C(\CC(=O)N2C[C@H]3CCCC[C@H]3C2)C(=O)O)cc1)c1nc2ccccc2o1	121
O=C(O)/C(=C\c1ccc(OCCCc2ccc(C(F)(F)F)cc2)cc1)CC(=O)N1C[C@H]2CCCC[C@H]2C1	4
CN(CCOc1ccc(/C=C(\CC(=O)N2C[C@H]3CCCC[C@H]3C2)C(=O)O)cc1)c1ccccn1	87
O=C(O)/C(=C/c1ccc(OCCn2ccc3ccccc32)cc1)CC(=O)N1C[C@H]2CCCC[C@H]2C1	9
CC(C)[C@H]1CC[C@H](C(=O)N[C@H](Cc2ccccc2)C(=O)O)CC1 [NATEGLINIDE]	6
Cc1oc(C2CCCCC2)nc1CCOc1ccc(/C=C(\CC(=O)N2C[C@H]3CCCC[C@H]3C2)C(=O)O)cc1	83

Tested on: 3T3-L1
Experiment: Compound was tested for insulin-sensitizing activity by measuring triglyceride accumulation from insulin regulated differentiation of 3T3-L1 cells at 10 uM expressed as percent activity of pioglitazone
Format: functional, Mus musculus

Compound	Activity [%]
CCc1ccc(CCOc2ccc(CC3SC(=O)NC3=O)cc2)nc1 (stereo unspecified) [PIOGLITAZONE]	100
CCc1ccc(CCOc2ccc(C[C@H](CC(=O)N3C[C@H]4CCCC[C@H]4C3)C(=O)O)cc2)nc1	55
CCc1ccc(CCOc2ccc(CC(CC(=O)N3C[C@H]4CCCC[C@H]4C3)C(=O)O)cc2)nc1 (stereo partly specified)	30
CCc1ccc(CCOc2ccc(/C=C(\CC(=O)N3C[C@H]4CCCC[C@H]4C3)C(=O)O)cc2)nc1	50
CCc1ccc(CCOc2ccc(CC(NC(=O)[C@H]3CC[C@H](C(C)C)CC3)C(=O)O)cc2)nc1 (stereo partly specified)	30
CCc1ccc(CCOc2ccc(C[C@@H](CC(=O)N3C[C@H]4CCCC[C@H]4C3)C(=O)O)cc2)nc1	11
CC(C)[C@H]1CC[C@H](C(=O)N[C@H](Cc2ccccc2)C(=O)O)CC1 [NATEGLINIDE]	40

Tested on: not listed separately
Experiment: Insulin-releasing activity in HIT-T15 cells in the presence of 16.7 mM glucose at 10 uM expressed as percent activity of nateglinide
Format: functional, Cricetulus griseus

Compound	Activity [%]
CCc1ccc(CCOc2ccc(CC3SC(=O)NC3=O)cc2)nc1 (stereo unspecified) [PIOGLITAZONE]	10
O=C(O)/C(=C\c1ccc(OCCc2ccc(C(F)(F)F)cc2)cc1)CC(=O)N1C[C@H]2CCCC[C@H]2C1	93
CCc1ccc(CCOc2ccc(C[C@H](CC(=O)N3C[C@H]4CCCC[C@H]4C3)C(=O)O)cc2)nc1	1
CCc1ccc(CCOc2ccc(CC(CC(=O)N3C[C@H]4CCCC[C@H]4C3)C(=O)O)cc2)nc1 (stereo partly specified)	68
Cc1oc(-c2ccccc2)nc1CCOc1ccc(/C=C(\CC(=O)N2C[C@H]3CCCC[C@H]3C2)C(=O)O)cc1	145
CCc1ccc(CCOc2ccc(/C=C(\CC(=O)N3C[C@H]4CCCC[C@H]4C3)C(=O)O)cc2)nc1	136
Cc1oc(-c2ccccc2)nc1CCOc1ccc(CC(CC(=O)N2C[C@H]3CCCC[C@H]3C2)C(=O)O)cc1 (stereo partly specified)	85
CCc1ccc(CCOc2ccc(CC(NC(=O)[C@H]3CC[C@H](C(C)C)CC3)C(=O)O)cc2)nc1 (stereo partly specified)	33
Cc1oc(-c2ccncc2)nc1CCOc1ccc(/C=C(\CC(=O)N2C[C@H]3CCCC[C@H]3C2)C(=O)O)cc1	49
O=C(O)/C(=C\c1ccc(OCc2ccc(C(F)(F)F)cc2)cc1)CC(=O)N1C[C@H]2CCCC[C@H]2C1	130
CCc1ccc(CCOc2ccc(C[C@@H](CC(=O)N3C[C@H]4CCCC[C@H]4C3)C(=O)O)cc2)nc1	105
CN(CCOc1ccc(/C=C(\CC(=O)N2C[C@H]3CCCC[C@H]3C2)C(=O)O)cc1)c1nc2ccccc2o1	60
O=C(O)/C(=C\c1ccc(OCCCc2ccc(C(F)(F)F)cc2)cc1)CC(=O)N1C[C@H]2CCCC[C@H]2C1	130
CN(CCOc1ccc(/C=C(\CC(=O)N2C[C@H]3CCCC[C@H]3C2)C(=O)O)cc1)c1ccccn1	60
O=C(O)/C(=C/c1ccc(OCCn2ccc3ccccc32)cc1)CC(=O)N1C[C@H]2CCCC[C@H]2C1	105
CC(C)[C@H]1CC[C@H](C(=O)N[C@H](Cc2ccccc2)C(=O)O)CC1 [NATEGLINIDE]	100
Cc1oc(C2CCCCC2)nc1CCOc1ccc(/C=C(\CC(=O)N2C[C@H]3CCCC[C@H]3C2)C(=O)O)cc1	93
